ChEMBL document CHEMBL5724914, “Linking interpersonal differences in gut microbiota composition and drug biotransformation activity” (2024)
Where a SMILES comes first, the peptide text is derived from it. [ ]: non-standard residue; d: D form. pGlu = O=C1CC[C@@H](C(=O)O)N1; Thz = O=C(O)[C@@H]1CSCN1

experiment: (§1) The drug is tested on Z-025 corresponding to rabbit gut metagenome with ENA study accession number: PRJEB37062 and ENA sample accession number: ERS12561824 for biotransformation under anaerobic condition. The drug concentrations were measured over 9 timepoints collected between 0 and 24 hours of incubation by liquid-chromatography-coupled mass spectrometry (LC–MS); conditions: 2 µM
Note: call rule not given here.

SMILES | Bacterial Biotransformation
O=C1CC[C@@H](C(=O)N2CSC[C@H]2C(=O)O)N1 [PIDOTIMOD] ([pGlu]-[Thz]-OH) | Compound NOT metabolized
C=CCN1CC[C@]23c4c5ccc(O)c4O[C@H]2C(=O)CC[C@@]3(O)[C@H]1C5 [NALOXONE] | Compound NOT metabolized
c1ccc([C@H]2CN3CCSC3=N2)cc1 [LEVAMISOLE] | Compound NOT metabolized
O=c1[nH]c2ccccc2n1CCCN1CCC(n2c(=O)[nH]c3cc(Cl)ccc32)CC1 [DOMPERIDONE] | Compound NOT metabolized

experiment: as §1, with “Z-023” for “Z-025”, “to” for “to rabbit gut”, “ERS12561822” for “ERS12561824”; conditions: 2 µM

SMILES | Bacterial Biotransformation
O=C1CC[C@@H](C(=O)N2CSC[C@H]2C(=O)O)N1 [PIDOTIMOD] ([pGlu]-[Thz]-OH) | Compound metabolized
C=CCN1CC[C@]23c4c5ccc(O)c4O[C@H]2C(=O)CC[C@@]3(O)[C@H]1C5 [NALOXONE] | Compound NOT metabolized
O=c1[nH]c2ccccc2n1CCCN1CCC(n2c(=O)[nH]c3cc(Cl)ccc32)CC1 [DOMPERIDONE] | Compound NOT metabolized

experiment: as §1, with “Z-022” for “Z-025”, “mouse” for “rabbit”, “ERS12561821” for “ERS12561824”; conditions: 2 µM

SMILES | Bacterial Biotransformation
O=C1CC[C@@H](C(=O)N2CSC[C@H]2C(=O)O)N1 [PIDOTIMOD] ([pGlu]-[Thz]-OH) | Compound metabolized
C=CCN1CC[C@]23c4c5ccc(O)c4O[C@H]2C(=O)CC[C@@]3(O)[C@H]1C5 [NALOXONE] | Compound NOT metabolized
c1ccc([C@H]2CN3CCSC3=N2)cc1 [LEVAMISOLE] | Compound metabolized
O=c1[nH]c2ccccc2n1CCCN1CCC(n2c(=O)[nH]c3cc(Cl)ccc32)CC1 [DOMPERIDONE] | Compound NOT metabolized

experiment: as §1, with “Z-021” for “Z-025”, “to” for “to rabbit gut”, “ERS12561820” for “ERS12561824”; conditions: 2 µM

SMILES | Bacterial Biotransformation
C=CCN1CC[C@]23c4c5ccc(O)c4O[C@H]2C(=O)CC[C@@]3(O)[C@H]1C5 [NALOXONE] | Compound NOT metabolized
O=c1[nH]c2ccccc2n1CCCN1CCC(n2c(=O)[nH]c3cc(Cl)ccc32)CC1 [DOMPERIDONE] | Compound NOT metabolized

experiment: as §1, with “Z-011” for “Z-025”, “mouse” for “rabbit”, “ERS12561811” for “ERS12561824”; conditions: 2 µM

SMILES | Bacterial Biotransformation
O=C1CC[C@@H](C(=O)N2CSC[C@H]2C(=O)O)N1 [PIDOTIMOD] ([pGlu]-[Thz]-OH) | Compound NOT metabolized
C=CCN1CC[C@]23c4c5ccc(O)c4O[C@H]2C(=O)CC[C@@]3(O)[C@H]1C5 [NALOXONE] | Compound NOT metabolized
c1ccc([C@H]2CN3CCSC3=N2)cc1 [LEVAMISOLE] | Compound NOT metabolized
O=c1[nH]c2ccccc2n1CCCN1CCC(n2c(=O)[nH]c3cc(Cl)ccc32)CC1 [DOMPERIDONE] | Compound NOT metabolized

experiment: as §1, with “Z-006” for “Z-025”, “mouse” for “rabbit”, “ERS12561806” for “ERS12561824”; conditions: 2 µM

SMILES | Bacterial Biotransformation
O=C1CC[C@@H](C(=O)N2CSC[C@H]2C(=O)O)N1 [PIDOTIMOD] ([pGlu]-[Thz]-OH) | Compound NOT metabolized
C=CCN1CC[C@]23c4c5ccc(O)c4O[C@H]2C(=O)CC[C@@]3(O)[C@H]1C5 [NALOXONE] | Compound NOT metabolized
c1ccc([C@H]2CN3CCSC3=N2)cc1 [LEVAMISOLE] | Compound metabolized
O=c1[nH]c2ccccc2n1CCCN1CCC(n2c(=O)[nH]c3cc(Cl)ccc32)CC1 [DOMPERIDONE] | Compound NOT metabolized

experiment: as §1, with “WLS-098” for “Z-025”, “human” for “rabbit”, “ERS12561754” for “ERS12561824”; conditions: 2 µM

SMILES | Bacterial Biotransformation
O=C1CC[C@@H](C(=O)N2CSC[C@H]2C(=O)O)N1 [PIDOTIMOD] ([pGlu]-[Thz]-OH) | Compound NOT metabolized
C=CCN1CC[C@]23c4c5ccc(O)c4O[C@H]2C(=O)CC[C@@]3(O)[C@H]1C5 [NALOXONE] | Compound NOT metabolized
O=c1[nH]c2ccccc2n1CCCN1CCC(n2c(=O)[nH]c3cc(Cl)ccc32)CC1 [DOMPERIDONE] | Compound NOT metabolized

experiment: as §1, with “WLS-052” for “Z-025”, “human” for “rabbit”, “ERS12561747” for “ERS12561824”; conditions: 2 µM

SMILES | Bacterial Biotransformation
C=CCN1CC[C@]23c4c5ccc(O)c4O[C@H]2C(=O)CC[C@@]3(O)[C@H]1C5 [NALOXONE] | Compound NOT metabolized
c1ccc([C@H]2CN3CCSC3=N2)cc1 [LEVAMISOLE] | Compound NOT metabolized
O=c1[nH]c2ccccc2n1CCCN1CCC(n2c(=O)[nH]c3cc(Cl)ccc32)CC1 [DOMPERIDONE] | Compound NOT metabolized

experiment: as §1, with “WLS-039” for “Z-025”, “human” for “rabbit”, “ERS12561746” for “ERS12561824”; conditions: 2 µM

SMILES | Bacterial Biotransformation
C=CCN1CC[C@]23c4c5ccc(O)c4O[C@H]2C(=O)CC[C@@]3(O)[C@H]1C5 [NALOXONE] | Compound NOT metabolized
c1ccc([C@H]2CN3CCSC3=N2)cc1 [LEVAMISOLE] | Compound metabolized
O=c1[nH]c2ccccc2n1CCCN1CCC(n2c(=O)[nH]c3cc(Cl)ccc32)CC1 [DOMPERIDONE] | Compound NOT metabolized

experiment: as §1, with “WLS-027” for “Z-025”, “human” for “rabbit”, “ERS12561744” for “ERS12561824”; conditions: 2 µM

SMILES | Bacterial Biotransformation
O=C1CC[C@@H](C(=O)N2CSC[C@H]2C(=O)O)N1 [PIDOTIMOD] ([pGlu]-[Thz]-OH) | Compound NOT metabolized
C=CCN1CC[C@]23c4c5ccc(O)c4O[C@H]2C(=O)CC[C@@]3(O)[C@H]1C5 [NALOXONE] | Compound NOT metabolized
c1ccc([C@H]2CN3CCSC3=N2)cc1 [LEVAMISOLE] | Compound metabolized
O=c1[nH]c2ccccc2n1CCCN1CCC(n2c(=O)[nH]c3cc(Cl)ccc32)CC1 [DOMPERIDONE] | Compound NOT metabolized

experiment: as §1, with “WLS-010” for “Z-025”, “human” for “rabbit”, “ERS12561743” for “ERS12561824”; conditions: 2 µM

SMILES | Bacterial Biotransformation
O=C1CC[C@@H](C(=O)N2CSC[C@H]2C(=O)O)N1 [PIDOTIMOD] ([pGlu]-[Thz]-OH) | Compound NOT metabolized

conditions: human gut metagenome, 24 h, 2 µM

SMILES | Bacterial Biotransformation
O=C1CC[C@@H](C(=O)N2CSC[C@H]2C(=O)O)N1 [PIDOTIMOD] ([pGlu]-[Thz]-OH) | Compound metabolized
C=CCN1CC[C@]23c4c5ccc(O)c4O[C@H]2C(=O)CC[C@@]3(O)[C@H]1C5 [NALOXONE] | Compound NOT metabolized
c1ccc([C@H]2CN3CCSC3=N2)cc1 [LEVAMISOLE] | Compound NOT metabolized

conditions: human gut metagenome, 24 h, 2 µM; remark: another data set of the same source

SMILES | Bacterial Biotransformation
O=C1CC[C@@H](C(=O)N2CSC[C@H]2C(=O)O)N1 [PIDOTIMOD] ([pGlu]-[Thz]-OH) | Compound NOT metabolized
C=CCN1CC[C@]23c4c5ccc(O)c4O[C@H]2C(=O)CC[C@@]3(O)[C@H]1C5 [NALOXONE] | Compound NOT metabolized
c1ccc([C@H]2CN3CCSC3=N2)cc1 [LEVAMISOLE] | Compound metabolized
O=c1[nH]c2ccccc2n1CCCN1CCC(n2c(=O)[nH]c3cc(Cl)ccc32)CC1 [DOMPERIDONE] | Compound NOT metabolized

conditions: human gut metagenome, 24 h, 2 µM; remark: another data set of the same source

SMILES | Bacterial Biotransformation
O=C1CC[C@@H](C(=O)N2CSC[C@H]2C(=O)O)N1 [PIDOTIMOD] ([pGlu]-[Thz]-OH) | Compound NOT metabolized
C=CCN1CC[C@]23c4c5ccc(O)c4O[C@H]2C(=O)CC[C@@]3(O)[C@H]1C5 [NALOXONE] | Compound NOT metabolized
c1ccc([C@H]2CN3CCSC3=N2)cc1 [LEVAMISOLE] | Compound metabolized

conditions: human gut metagenome, 24 h, 2 µM; remark: another data set of the same source

SMILES | Bacterial Biotransformation
O=C1CC[C@@H](C(=O)N2CSC[C@H]2C(=O)O)N1 [PIDOTIMOD] ([pGlu]-[Thz]-OH) | Compound NOT metabolized
C=CCN1CC[C@]23c4c5ccc(O)c4O[C@H]2C(=O)CC[C@@]3(O)[C@H]1C5 [NALOXONE] | Compound metabolized
c1ccc([C@H]2CN3CCSC3=N2)cc1 [LEVAMISOLE] | Compound metabolized
O=c1[nH]c2ccccc2n1CCCN1CCC(n2c(=O)[nH]c3cc(Cl)ccc32)CC1 [DOMPERIDONE] | Compound NOT metabolized

conditions: human gut metagenome, 24 h, 2 µM; remark: another data set of the same source

SMILES | Bacterial Biotransformation
O=C1CC[C@@H](C(=O)N2CSC[C@H]2C(=O)O)N1 [PIDOTIMOD] ([pGlu]-[Thz]-OH) | Compound NOT metabolized
C=CCN1CC[C@]23c4c5ccc(O)c4O[C@H]2C(=O)CC[C@@]3(O)[C@H]1C5 [NALOXONE] | Compound NOT metabolized
c1ccc([C@H]2CN3CCSC3=N2)cc1 [LEVAMISOLE] | Compound metabolized
O=c1[nH]c2ccccc2n1CCCN1CCC(n2c(=O)[nH]c3cc(Cl)ccc32)CC1 [DOMPERIDONE] | Compound NOT metabolized

conditions: human gut metagenome, 24 h, 2 µM; remark: another data set of the same source

SMILES | Bacterial Biotransformation
O=C1CC[C@@H](C(=O)N2CSC[C@H]2C(=O)O)N1 [PIDOTIMOD] ([pGlu]-[Thz]-OH) | Compound NOT metabolized
C=CCN1CC[C@]23c4c5ccc(O)c4O[C@H]2C(=O)CC[C@@]3(O)[C@H]1C5 [NALOXONE] | Compound NOT metabolized
c1ccc([C@H]2CN3CCSC3=N2)cc1 [LEVAMISOLE] | Compound metabolized
O=c1[nH]c2ccccc2n1CCCN1CCC(n2c(=O)[nH]c3cc(Cl)ccc32)CC1 [DOMPERIDONE] | Compound NOT metabolized

conditions: human gut metagenome, 24 h, 2 µM; remark: another data set of the same source

SMILES | Bacterial Biotransformation
O=C1CC[C@@H](C(=O)N2CSC[C@H]2C(=O)O)N1 [PIDOTIMOD] ([pGlu]-[Thz]-OH) | Compound NOT metabolized
C=CCN1CC[C@]23c4c5ccc(O)c4O[C@H]2C(=O)CC[C@@]3(O)[C@H]1C5 [NALOXONE] | Compound NOT metabolized
c1ccc([C@H]2CN3CCSC3=N2)cc1 [LEVAMISOLE] | Compound NOT metabolized
O=c1[nH]c2ccccc2n1CCCN1CCC(n2c(=O)[nH]c3cc(Cl)ccc32)CC1 [DOMPERIDONE] | Compound NOT metabolized

conditions: human gut metagenome, 24 h, 2 µM; remark: another data set of the same source

SMILES | Bacterial Biotransformation
O=C1CC[C@@H](C(=O)N2CSC[C@H]2C(=O)O)N1 [PIDOTIMOD] ([pGlu]-[Thz]-OH) | Compound NOT metabolized
C=CCN1CC[C@]23c4c5ccc(O)c4O[C@H]2C(=O)CC[C@@]3(O)[C@H]1C5 [NALOXONE] | Compound NOT metabolized
c1ccc([C@H]2CN3CCSC3=N2)cc1 [LEVAMISOLE] | Compound metabolized

conditions: human gut metagenome, 24 h, 2 µM; remark: another data set of the same source

SMILES | Bacterial Biotransformation
O=C1CC[C@@H](C(=O)N2CSC[C@H]2C(=O)O)N1 [PIDOTIMOD] ([pGlu]-[Thz]-OH) | Compound NOT metabolized
C=CCN1CC[C@]23c4c5ccc(O)c4O[C@H]2C(=O)CC[C@@]3(O)[C@H]1C5 [NALOXONE] | Compound NOT metabolized
c1ccc([C@H]2CN3CCSC3=N2)cc1 [LEVAMISOLE] | Compound metabolized
O=c1[nH]c2ccccc2n1CCCN1CCC(n2c(=O)[nH]c3cc(Cl)ccc32)CC1 [DOMPERIDONE] | Compound NOT metabolized
